Data published in patent US20230313313A1, “BIOMARKERS FOR CANCER THERAPY USING MDM2 ANTAGONISTS” (OTSUKA PHARMACEUTICAL CO., LTD., priority 2020, published 2023).
“Also recorded” adds a separate entry of the source.

What was measured:
MV4-11 cells = assay: Alamar Blue proliferation assay, MV4-11 overexpressing SKP2 vs control; type: cell-based, human; conditions: MV4-11 SKP2 OE compared to control
Method: Precision LentiORF Transduction:
Precision LentiORF Lentiviral Transduction Particles (Cat. OHS5900-224629438, Dharmacon, UK) were used to overexpress SKP2 in the MV4-11 AML cell line. Stable gene overexpression was established by cellular resistance to blasticidin (5 μg/ml) and was confirmed at the protein level by western blot. The Precision LentiORF control empty vector (Dharmacon, UK) served as a negative control.
The number of viable cells was determined by Alamar Blue assay (Bio-Rad, Irvine, CA, USA). All cell lines were grown and assayed in RPMI-1640+10% FBS medium.
Compounds were diluted first in DMSO and then into serum-free medium, before addition to triplicate wells of the cultured cells to give a 0.1% DMSO final concentration. […] Twenty μl of Alamar Blue™ (AbD Serotec/Bio-Rad) was added to each well and plates were then incubated for 4-6 h at 37° C. in an atmosphere of 5% CO2 and air. Plates were then read at 535 nm (excitation) and 590 nm (emission) on a SpectraMax Gemini reader (Molecular Devices, San Jose, CA, USA).

OCI-AML3 cells = assay: Induction of apoptosis by cleaved caspase-3 cytometry, combination with IAP antagonist; type: cell-based, human; conditions: 0.1 μM Compound 1 with 1 μM ASTX660 and 1 ng/ml TNF-alpha, 72 h
Method: Cleaved caspase-3 staining was recorded in the FL1 (green) channel, with unstained and DMSO control wells being used to set the gated stained and unstained cell populations—allowing the percentage of cells that are apoptotic to be calculated.

SN40R2 = assay: Protocol A: SN40R2 growth inhibition, sulphorhodamine B (SRB) method; conditions: 72 h, read-out: SN40R2 IC50 (Protocol A)
Method: Following incubation with the SRB dye at room temperature for 30 min, the plates were washed with 1% acetic acid and left to dry. […] The GI50 was calculated by non-linear regression analysis of the data using Prism v4.0 statistical software.

[1] = tested on: multiple myeloma (MM) cells; conditions: in vitro and ex vivo; cited from earlier work
human leukaemia models = conditions: by inducing MDM2 degradation; cited from earlier work
cancer cell lines = conditions: cited from earlier work
tumour growth = conditions: inducing mitochondrial effects of p53; cited from earlier work

CC1(C)CCC(CN2CCN(c3ccc(C(=O)NS(=O)(=O)c4ccc(NCC5CCOCC5)c([N+](=O)[O-])c4)c(Oc4cnc5[nH]ccc5c4)c3)CC2)=C(c2ccc(Cl)cc2)C1 [ABT-199, reference compound]
effect of SKP2 overexpression on cytotoxicity / sensitivity (MV4-11 cells): does not modulate sensitivity; also recorded: no difference

C[C@@H]1CN(CC(=O)N2CC(C)(C)c3nc(CO)c(Cc4ccc(F)cc4)cc32)[C@@H](CN2CCOC[C@H]2C)CN1 [ASTX660, 1-{6-[(4-fluorophenyl)methyl]-5-(hydroxymethyl)-3,3-dimethyl-1H,2H,3H-pyrrolo[3,2-b]pyridin-1-yl}-2-[(2R,5R)-5-methyl-2-{[(3R)-3-methylmorpholin-4-yl]methyl}piperazin-1-yl]ethan-1-one, reference compound]
level of apoptosis (cleaved caspase-3), combination (OCI-AML3 cells): sensitises

CC(C)(O)c1ccc2c(c1)C(=O)N(Cc1ccc(Cl)cc1)[C@@]2(OCC1(CO)CC1)c1ccc(Cl)cc1 [Example 1, (3R)-3-(4-chlorophenyl)-2-[(4-chlorophenyl)methyl]-3-{[1-(hydroxymethyl)cyclopropyl]methoxy}-6-(2-hydroxypropan-2-yl)-2,3-dihydro-1H-isoindol-1-one]
IC50 (SN40R2): 7.5 µM

CC(C)(O)c1cc(F)c2c(c1)C(=O)N(Cc1ccc(Cl)cc1)[C@@]2(OCC1(CO)CC1)c1ccc(Cl)cc1 [Example 2, (3R)-3-(4-chlorophenyl)-2-[(4-chlorophenyl)methyl]-4-fluoro-3-{[1-(hydroxymethyl)cyclopropyl]methoxy}-6-(2-hydroxypropan-2-yl)-2,3-dihydro-1H-isoindol-1-one]
IC50 (SN40R2): 17 µM

CC(O)(CN1CCNCC1)c1cc(F)c2c(c1)C(=O)N(Cc1ccc(Cl)cc1S(C)(=O)=O)[C@@]2(OCC1(CO)CC1)c1ccc(Cl)cc1 (stereo partly drawn) [Example 43, (3R)-2-[(4-chloro-2-methanesulfonylphenyl)methyl]-3-(4-chlorophenyl)-4-fluoro-6-[2-hydroxy-1-(piperazin-1-yl)propan-2-yl]-3-{[1-(hydroxymethyl)cyclopropyl]methoxy}-2,3-dihydro-1H-isoindol-1-one]
IC50 (SN40R2): 2 µM

c1ccc2c(CCNc3ccc(Nc4ccncc4)cc3)c[nH]c2c1 [JNJ 26854165]
activity against multiple myeloma (MM) cells [1]: potent activity

O=C(O)C(F)(F)F.O=C1CCC(N2Cc3c(C#CCCCNC(=O)c4ccc(NC(=O)[C@@H]5NC6(CCCCC6)[C@@]6(C(=O)Nc7cc(Cl)ccc76)[C@H]5c5ccnc(Cl)c5F)cc4)cccc3C2=O)C(=O)N1 (stereo partly drawn) [LE-004]
growth of human leukaemia models in mice (human leukaemia models): efficiently inhibited growth

CC(C)(C)C[C@@H]1N[C@@H](C(=O)N[C@H]2CC[C@H](O)CC2)[C@H](c2cccc(Cl)c2F)[C@]12C(=O)Nc1cc(Cl)ccc12 [MI-773]
cell growth in cancer cell lines (cancer cell lines): potently inhibits cell growth

COC1CC(C(N)=O)CCC1NC(=O)[C@@H]1N[C@@H](CC(C)(C)C)[C@@]2(C(=O)Nc3cc(Cl)ccc32)[C@H]1c1cccc(Cl)c1F (stereo partly drawn) [RO-8994]
tumour growth (tumour growth): inhibit tumour growth
